In the kinase profiling compilation of Christmann-Franck et al. (2016):
Values belong to the compound of their own block, whether it stands above or below them.

Experiments:
Test in all cases: radiometric filter-binding kinase assay
[1] = target: MAPK10 (human) (UniProt P53779)
[2] = target: AURKB (human) (UniProt Q96GD4)
[3] = target: EPHB2 (human) (UniProt P29323)
[4] = target: MYLK (human) (UniProt Q15746)
[5] = target: TBK1 (human) (UniProt Q9UHD2)
[6] = target: GCK (human) (UniProt Q12851)
Sequence of GCK (human) (Q12851 whole entry, looked up): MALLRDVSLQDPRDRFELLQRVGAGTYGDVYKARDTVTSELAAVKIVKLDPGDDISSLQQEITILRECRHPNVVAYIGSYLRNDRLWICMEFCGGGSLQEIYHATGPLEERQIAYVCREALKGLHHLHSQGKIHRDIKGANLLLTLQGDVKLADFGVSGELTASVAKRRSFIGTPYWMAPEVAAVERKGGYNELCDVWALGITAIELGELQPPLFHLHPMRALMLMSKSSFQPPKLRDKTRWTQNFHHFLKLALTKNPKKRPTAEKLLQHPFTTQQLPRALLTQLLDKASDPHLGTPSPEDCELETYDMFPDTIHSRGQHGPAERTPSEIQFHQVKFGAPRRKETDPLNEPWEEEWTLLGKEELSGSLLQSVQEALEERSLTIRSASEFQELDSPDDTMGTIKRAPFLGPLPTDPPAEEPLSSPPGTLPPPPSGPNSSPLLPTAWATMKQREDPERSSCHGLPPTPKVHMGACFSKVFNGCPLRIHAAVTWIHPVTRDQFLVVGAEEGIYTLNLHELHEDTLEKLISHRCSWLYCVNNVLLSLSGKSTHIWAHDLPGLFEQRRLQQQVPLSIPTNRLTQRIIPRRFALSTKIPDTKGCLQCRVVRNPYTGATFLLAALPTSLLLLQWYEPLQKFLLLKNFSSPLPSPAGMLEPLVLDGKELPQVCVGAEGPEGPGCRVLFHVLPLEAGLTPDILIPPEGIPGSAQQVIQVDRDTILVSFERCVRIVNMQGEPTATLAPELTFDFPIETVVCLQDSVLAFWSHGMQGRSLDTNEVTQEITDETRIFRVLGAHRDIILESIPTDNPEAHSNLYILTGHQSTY

[7] = target: SRC (human) (UniProt P12931)
[8] = target: MINK1 (human) (UniProt Q8N4C8)
[9] = target: TTK (human) (UniProt P33981)
[10] = target: NUAK1 (human) (UniProt O60285)
[11] = target: MARK2 (human) (UniProt Q7KZI7)
[12] = target: EPHA2 (human) (UniProt P29317)
Sequence of EPHA2 (human) (P29317 whole entry, looked up): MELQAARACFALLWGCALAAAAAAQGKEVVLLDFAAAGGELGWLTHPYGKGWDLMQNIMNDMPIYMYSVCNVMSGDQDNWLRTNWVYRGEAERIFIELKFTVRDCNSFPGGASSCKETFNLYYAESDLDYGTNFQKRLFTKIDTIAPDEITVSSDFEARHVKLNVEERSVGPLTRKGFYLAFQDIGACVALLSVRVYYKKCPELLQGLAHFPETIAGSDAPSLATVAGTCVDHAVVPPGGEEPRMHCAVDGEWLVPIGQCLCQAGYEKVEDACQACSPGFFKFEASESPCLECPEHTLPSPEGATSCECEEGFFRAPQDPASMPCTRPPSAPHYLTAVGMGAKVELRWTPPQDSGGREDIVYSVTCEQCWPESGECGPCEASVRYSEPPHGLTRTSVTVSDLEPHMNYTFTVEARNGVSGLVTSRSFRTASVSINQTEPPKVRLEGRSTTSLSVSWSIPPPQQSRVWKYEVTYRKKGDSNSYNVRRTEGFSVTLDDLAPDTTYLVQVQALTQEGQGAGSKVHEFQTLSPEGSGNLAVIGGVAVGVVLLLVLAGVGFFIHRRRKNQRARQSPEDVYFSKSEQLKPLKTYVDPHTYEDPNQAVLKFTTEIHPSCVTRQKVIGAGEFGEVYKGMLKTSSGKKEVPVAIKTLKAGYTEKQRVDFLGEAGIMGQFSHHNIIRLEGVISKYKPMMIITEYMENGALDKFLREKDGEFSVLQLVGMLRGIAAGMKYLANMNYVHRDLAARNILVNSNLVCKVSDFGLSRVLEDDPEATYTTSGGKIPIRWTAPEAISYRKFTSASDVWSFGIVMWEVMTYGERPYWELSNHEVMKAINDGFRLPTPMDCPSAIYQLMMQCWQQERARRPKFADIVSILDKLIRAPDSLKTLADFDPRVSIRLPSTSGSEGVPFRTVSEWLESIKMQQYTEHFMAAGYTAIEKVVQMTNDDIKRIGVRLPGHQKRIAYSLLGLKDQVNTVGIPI

[13] = target: MST4 (human) (UniProt Q9P289)
[14] = target: EPHB3 (human) (UniProt P54753)
[15] = tested on: PAK2 (human), Q13177 [T402E]
Sequence of PAK2 (human), Q13177 [T402E] (Q13177 whole entry T402E, looked up): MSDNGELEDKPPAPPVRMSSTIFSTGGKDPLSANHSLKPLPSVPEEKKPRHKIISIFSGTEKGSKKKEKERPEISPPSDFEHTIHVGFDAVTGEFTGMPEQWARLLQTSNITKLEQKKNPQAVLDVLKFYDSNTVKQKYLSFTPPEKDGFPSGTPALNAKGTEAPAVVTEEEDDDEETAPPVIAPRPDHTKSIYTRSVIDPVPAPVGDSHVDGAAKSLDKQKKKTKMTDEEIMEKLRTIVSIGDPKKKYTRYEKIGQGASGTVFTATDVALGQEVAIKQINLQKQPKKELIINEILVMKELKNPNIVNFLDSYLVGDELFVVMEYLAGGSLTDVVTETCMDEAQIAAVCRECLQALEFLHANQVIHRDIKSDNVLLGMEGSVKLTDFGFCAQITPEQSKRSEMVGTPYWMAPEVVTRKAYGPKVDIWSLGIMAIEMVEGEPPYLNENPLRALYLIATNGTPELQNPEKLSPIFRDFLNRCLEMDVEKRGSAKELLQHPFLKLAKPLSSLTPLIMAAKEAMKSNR

[16] = tested on: ROCK2 (rat); settings: accession and sequence are those of the human protein
[17] = target: CSK (human) (UniProt P41240)
[18] = target: MAP3K11 (human) (UniProt Q16584)
[19] = target: CaMK1 (human) (UniProt Q14012)
[20] = target: EPHA4 (human) (UniProt P54764)
[21] = target: PKN2 (human) (UniProt Q16513)
Sequence of PKN2 (human) (Q16513 whole entry, looked up): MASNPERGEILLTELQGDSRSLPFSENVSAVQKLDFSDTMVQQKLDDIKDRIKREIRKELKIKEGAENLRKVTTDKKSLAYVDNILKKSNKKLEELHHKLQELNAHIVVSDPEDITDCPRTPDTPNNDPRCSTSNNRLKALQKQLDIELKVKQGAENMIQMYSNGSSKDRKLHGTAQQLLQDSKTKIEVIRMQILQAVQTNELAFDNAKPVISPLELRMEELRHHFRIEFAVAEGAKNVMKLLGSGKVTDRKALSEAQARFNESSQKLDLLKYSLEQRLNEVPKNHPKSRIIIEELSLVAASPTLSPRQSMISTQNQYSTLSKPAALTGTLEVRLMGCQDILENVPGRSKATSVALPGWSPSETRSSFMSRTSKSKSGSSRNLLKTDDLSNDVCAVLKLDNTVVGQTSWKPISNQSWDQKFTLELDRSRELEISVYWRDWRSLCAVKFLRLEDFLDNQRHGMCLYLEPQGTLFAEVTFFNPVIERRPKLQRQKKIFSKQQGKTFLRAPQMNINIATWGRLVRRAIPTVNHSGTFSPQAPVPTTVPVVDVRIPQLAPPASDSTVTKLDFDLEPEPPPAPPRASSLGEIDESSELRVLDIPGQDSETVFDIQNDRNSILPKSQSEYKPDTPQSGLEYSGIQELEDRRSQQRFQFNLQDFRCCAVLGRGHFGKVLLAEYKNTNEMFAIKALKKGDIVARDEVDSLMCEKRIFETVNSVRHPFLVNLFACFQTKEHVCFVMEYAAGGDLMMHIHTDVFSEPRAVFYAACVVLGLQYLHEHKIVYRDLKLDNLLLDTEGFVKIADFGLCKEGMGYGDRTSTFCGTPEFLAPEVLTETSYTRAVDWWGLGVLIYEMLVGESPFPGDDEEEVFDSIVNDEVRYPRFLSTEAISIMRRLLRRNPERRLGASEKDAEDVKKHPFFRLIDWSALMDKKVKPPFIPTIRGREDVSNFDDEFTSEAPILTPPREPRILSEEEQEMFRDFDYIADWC

[22] = target: IKBKB (human) (UniProt O14920)
[23] = target: PAK6 (human) (UniProt Q9NQU5)
[24] = target: PAK4 (human) (UniProt O96013)
[25] = tested on: AKT1 (human), P31749 [S473D]
[26] = tested on: LCK (mouse); settings: accession and sequence are those of the human protein
[27] = target: RPS6KA3 KD1 KD2 (human) (UniProt P51812)
[28] = target: DYRK3 (human) (UniProt O43781)
[29] = target: CDK2 CCNA2 (human) (UniProt P20248+P24941)
[30] = target: EPHB1 (human) (UniProt P54762)
[31] = target: MAP3K7 TAB1 (human) (UniProt Q15750+O43318)
[32] = target: MAP2K1 (human) (UniProt Q02750)
[33] = target: CHEK2 (human) (UniProt O96017)
Sequence of CHEK2 (human) (O96017 whole entry, looked up): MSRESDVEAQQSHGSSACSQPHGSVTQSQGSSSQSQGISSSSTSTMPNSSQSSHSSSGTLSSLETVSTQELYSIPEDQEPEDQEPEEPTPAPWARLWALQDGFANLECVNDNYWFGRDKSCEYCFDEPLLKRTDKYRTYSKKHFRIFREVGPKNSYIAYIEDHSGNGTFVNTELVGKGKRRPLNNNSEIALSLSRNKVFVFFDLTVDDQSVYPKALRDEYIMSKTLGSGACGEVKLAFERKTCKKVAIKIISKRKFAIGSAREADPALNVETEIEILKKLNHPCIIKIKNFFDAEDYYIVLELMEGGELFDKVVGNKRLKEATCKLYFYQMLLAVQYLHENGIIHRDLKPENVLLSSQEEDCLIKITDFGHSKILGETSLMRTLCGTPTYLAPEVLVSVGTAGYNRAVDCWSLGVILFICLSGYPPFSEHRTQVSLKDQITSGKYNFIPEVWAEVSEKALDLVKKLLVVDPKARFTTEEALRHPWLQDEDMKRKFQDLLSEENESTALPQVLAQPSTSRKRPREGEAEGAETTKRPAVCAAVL

[34] = target: CHEK1 (human) (UniProt O14757)
[35] = target: MAPK8 (human) (UniProt P45983)
[36] = target: TAOK1 (human) (UniProt Q7L7X3)

Sequence of EPHB2 (human) (P29323 whole entry, looked up): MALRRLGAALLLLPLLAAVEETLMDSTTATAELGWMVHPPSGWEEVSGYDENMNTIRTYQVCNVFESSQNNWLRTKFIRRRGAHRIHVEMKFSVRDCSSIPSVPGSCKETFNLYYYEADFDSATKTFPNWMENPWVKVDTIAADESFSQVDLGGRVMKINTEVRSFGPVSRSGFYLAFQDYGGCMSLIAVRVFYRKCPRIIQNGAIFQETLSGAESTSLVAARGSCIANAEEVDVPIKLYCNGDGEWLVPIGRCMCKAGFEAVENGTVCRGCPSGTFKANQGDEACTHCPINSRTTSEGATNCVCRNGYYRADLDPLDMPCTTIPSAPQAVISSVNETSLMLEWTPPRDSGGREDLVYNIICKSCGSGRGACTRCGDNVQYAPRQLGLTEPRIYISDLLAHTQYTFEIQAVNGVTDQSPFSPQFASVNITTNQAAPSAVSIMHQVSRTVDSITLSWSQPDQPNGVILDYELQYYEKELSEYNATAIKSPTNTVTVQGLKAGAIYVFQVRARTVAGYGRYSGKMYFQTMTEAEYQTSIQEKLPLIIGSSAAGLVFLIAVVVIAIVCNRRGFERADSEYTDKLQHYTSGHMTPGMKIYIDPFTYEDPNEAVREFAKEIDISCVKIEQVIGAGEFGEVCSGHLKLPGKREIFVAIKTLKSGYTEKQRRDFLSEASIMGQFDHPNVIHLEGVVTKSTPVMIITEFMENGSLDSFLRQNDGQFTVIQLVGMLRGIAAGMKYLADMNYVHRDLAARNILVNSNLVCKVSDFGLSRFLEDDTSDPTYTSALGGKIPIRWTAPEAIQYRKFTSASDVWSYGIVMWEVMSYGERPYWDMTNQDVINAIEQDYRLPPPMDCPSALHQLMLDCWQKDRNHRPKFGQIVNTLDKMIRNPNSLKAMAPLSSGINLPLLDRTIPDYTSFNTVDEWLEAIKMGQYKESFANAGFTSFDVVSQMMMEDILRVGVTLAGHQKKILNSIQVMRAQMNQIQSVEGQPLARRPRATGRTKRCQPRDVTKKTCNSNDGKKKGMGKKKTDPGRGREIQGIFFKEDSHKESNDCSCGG

residual activity ([1]; compound 1.0 µM): 99% | residual activity ([1]; compound 10.0 µM): 92% | residual activity ([2]; compound 1.0 µM): 95% | residual activity ([2]; compound 10.0 µM): 96% | residual activity ([3]; compound 1.0 µM): 122% | residual activity ([3]; compound 10.0 µM): 102% | residual activity ([4]; compound 1.0 µM): 101% | residual activity ([4]; compound 10.0 µM): 79% | residual activity ([5]; compound 1.0 µM): 127% | residual activity ([6]; compound 1.0 µM): 85% | residual activity ([6]; compound 10.0 µM): 86% | residual activity ([7]; compound 1.0 µM): 97% | residual activity ([7]; compound 10.0 µM): 78% | residual activity ([8]; compound 10.0 µM): 104% | residual activity ([9]; compound 1.0 µM): 89% | residual activity ([9]; compound 10.0 µM): 87% | residual activity ([10]; compound 1.0 µM): 95% | residual activity ([10]; compound 10.0 µM): 73% | residual activity ([11]; compound 1.0 µM): 60% | residual activity ([11]; compound 10.0 µM): 59% | residual activity ([12]; compound 1.0 µM): 104% | residual activity ([12]; compound 10.0 µM): 89% | residual activity ([13]; compound 1.0 µM): 94% | residual activity ([13]; compound 10.0 µM): 90% | residual activity ([14]; compound 10.0 µM): 83% | residual activity ([15]; compound 1.0 µM): 95% | residual activity ([15]; compound 10.0 µM): 90% | residual activity ([16]; compound 1.0 µM): 96% | residual activity ([16]; compound 10.0 µM): 80% | residual activity ([17]; compound 1.0 µM): 148% | residual activity ([17]; compound 10.0 µM): 119% | residual activity ([18]; compound 1.0 µM): 80% | residual activity ([18]; compound 10.0 µM): 47% | residual activity ([19]; compound 1.0 µM): 98% | residual activity ([19]; compound 10.0 µM): 93% | residual activity ([20]; compound 10.0 µM): 107% | residual activity ([21]; compound 1.0 µM): 120% | residual activity ([22]; compound 1.0 µM): 100% | residual activity ([22]; compound 10.0 µM): 99% | residual activity ([23]; compound 1.0 µM): 97% | residual activity ([23]; compound 10.0 µM): 107% | residual activity ([24]; compound 1.0 µM): 85% | residual activity ([24]; compound 10.0 µM): 67% | residual activity ([25]; compound 1.0 µM): 97% | residual activity ([25]; compound 10.0 µM): 95% | residual activity ([26]; compound 1.0 µM): 110% | residual activity ([26]; compound 10.0 µM): 102% | residual activity ([27]; compound 1.0 µM): 99% | residual activity ([27]; compound 10.0 µM): 92% | residual activity ([28]; compound 1.0 µM): 84% | residual activity ([28]; compound 10.0 µM): 65% | residual activity ([29]; compound 1.0 µM): 106% | residual activity ([29]; compound 10.0 µM): 106% | residual activity ([30]; compound 1.0 µM): 118% | residual activity ([30]; compound 10.0 µM): 103% | residual activity ([31]; compound 1.0 µM): 88% | residual activity ([31]; compound 10.0 µM): 81% | residual activity ([32]; compound 1.0 µM): 85% | residual activity ([33]; compound 1.0 µM): 101% | residual activity ([33]; compound 10.0 µM): 60% | residual activity ([34]; compound 1.0 µM): 85% | residual activity ([34]; compound 10.0 µM): 86% | residual activity ([35]; compound 1.0 µM): 95% | residual activity ([35]; compound 10.0 µM): 103% | residual activity ([36]; compound 1.0 µM): 105% | residual activity ([36]; compound 10.0 µM): 101%
Structure (SMILES): Cc1nc(-c2ccc(OCC(C)C)c(C#N)c2)sc1C(=O)O

Structure (SMILES): O=C(N[C@@H](COc1ccc2[nH]c(=O)[nH]c2c1)c1ccccc1)c1cccn(Cc2ccc(F)c(F)c2)c1=O
residual activity ([1]; compound 0.1 µM): 101% | residual activity ([1]; compound 1.0 µM): 90% | residual activity ([1]; compound 10.0 µM): 101% | residual activity ([2]; compound 0.1 µM): 105% | residual activity ([2]; compound 1.0 µM): 104% | residual activity ([2]; compound 10.0 µM): 64% | residual activity ([3]; compound 0.1 µM): 118% | residual activity ([3]; compound 10.0 µM): 121% | residual activity ([4]; compound 0.1 µM): 97% | residual activity ([4]; compound 1.0 µM): 97% | residual activity ([4]; compound 10.0 µM): 89% | residual activity ([5]; compound 0.1 µM): 109% | residual activity ([5]; compound 1.0 µM): 132% | residual activity ([5]; compound 10.0 µM): 102% | residual activity ([6]; compound 0.1 µM): 102% | residual activity ([6]; compound 1.0 µM): 101% | residual activity ([6]; compound 10.0 µM): 94% | residual activity ([7]; compound 0.1 µM): 103% | residual activity ([7]; compound 1.0 µM): 100% | residual activity ([7]; compound 10.0 µM): 75% | residual activity ([8]; compound 0.1 µM): 92% | residual activity ([8]; compound 1.0 µM): 100% | residual activity ([8]; compound 10.0 µM): 87% | residual activity ([9]; compound 0.1 µM): 99% | residual activity ([9]; compound 1.0 µM): 100% | residual activity ([9]; compound 10.0 µM): 95% | residual activity ([10]; compound 0.1 µM): 115% | residual activity ([10]; compound 1.0 µM): 107% | residual activity ([10]; compound 10.0 µM): 98% | residual activity ([11]; compound 0.1 µM): 105% | residual activity ([11]; compound 1.0 µM): 102% | residual activity ([11]; compound 10.0 µM): 88% | residual activity ([12]; compound 1.0 µM): 102% | residual activity ([12]; compound 10.0 µM): 86% | residual activity ([13]; compound 0.1 µM): 101% | residual activity ([13]; compound 1.0 µM): 117% | residual activity ([13]; compound 10.0 µM): 86% | residual activity ([14]; compound 0.1 µM): 114% | residual activity ([14]; compound 1.0 µM): 119% | residual activity ([14]; compound 10.0 µM): 113% | residual activity ([15]; compound 0.1 µM): 113% | residual activity ([15]; compound 1.0 µM): 109% | residual activity ([15]; compound 10.0 µM): 79% | residual activity ([16]; compound 0.1 µM): 105% | residual activity ([16]; compound 1.0 µM): 112% | residual activity ([16]; compound 10.0 µM): 108% | residual activity ([17]; compound 0.1 µM): 109% | residual activity ([17]; compound 1.0 µM): 98% | residual activity ([17]; compound 10.0 µM): 101% | residual activity ([18]; compound 0.1 µM): 104% | residual activity ([18]; compound 1.0 µM): 97% | residual activity ([18]; compound 10.0 µM): 46% | residual activity ([19]; compound 0.1 µM): 95% | residual activity ([19]; compound 1.0 µM): 92% | residual activity ([19]; compound 10.0 µM): 51% | residual activity ([20]; compound 0.1 µM): 95% | residual activity ([20]; compound 1.0 µM): 113% | residual activity ([20]; compound 10.0 µM): 107% | residual activity ([21]; compound 0.1 µM): 108% | residual activity ([21]; compound 1.0 µM): 113% | residual activity ([21]; compound 10.0 µM): 103% | residual activity ([22]; compound 0.1 µM): 102% | residual activity ([22]; compound 1.0 µM): 99% | residual activity ([22]; compound 10.0 µM): 99% | residual activity ([23]; compound 0.1 µM): 102% | residual activity ([23]; compound 1.0 µM): 102% | residual activity ([23]; compound 10.0 µM): 89% | residual activity ([24]; compound 0.1 µM): 102% | residual activity ([24]; compound 1.0 µM): 101% | residual activity ([24]; compound 10.0 µM): 67% | residual activity ([25]; compound 0.1 µM): 96% | residual activity ([25]; compound 1.0 µM): 97% | residual activity ([25]; compound 10.0 µM): 90% | residual activity ([26]; compound 0.1 µM): 109% | residual activity ([26]; compound 1.0 µM): 101% | residual activity ([26]; compound 10.0 µM): 91% | residual activity ([27]; compound 0.1 µM): 102% | residual activity ([27]; compound 1.0 µM): 98% | residual activity ([27]; compound 10.0 µM): 85% | residual activity ([28]; compound 0.1 µM): 109% | residual activity ([28]; compound 1.0 µM): 109% | residual activity ([28]; compound 10.0 µM): 93% | residual activity ([29]; compound 0.1 µM): 90% | residual activity ([29]; compound 1.0 µM): 91% | residual activity ([29]; compound 10.0 µM): 95% | residual activity ([30]; compound 0.1 µM): 87% | residual activity ([30]; compound 1.0 µM): 88% | residual activity ([30]; compound 10.0 µM): 90% | residual activity ([31]; compound 0.1 µM): 97% | residual activity ([31]; compound 1.0 µM): 103% | residual activity ([31]; compound 10.0 µM): 54% | residual activity ([32]; compound 0.1 µM): 100% | residual activity ([32]; compound 10.0 µM): 95% | residual activity ([33]; compound 0.1 µM): 102% | residual activity ([33]; compound 1.0 µM): 106% | residual activity ([33]; compound 10.0 µM): 100% | residual activity ([34]; compound 0.1 µM): 96% | residual activity ([34]; compound 1.0 µM): 94% | residual activity ([34]; compound 10.0 µM): 95% | residual activity ([35]; compound 0.1 µM): 100% | residual activity ([35]; compound 10.0 µM): 114% | residual activity ([36]; compound 0.1 µM): 111% | residual activity ([36]; compound 1.0 µM): 126% | residual activity ([36]; compound 10.0 µM): 119%
